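Values below derive from 48-hour exposures of cells grown in 96-well plates, with endpoints linearly interpolated between the two concentrations bracketing the appropriate inhibition level. TGI: concentration producing complete growth inhibition.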
How the values were obtained:
Test in all cases: DTP human tumour cell line panel, 48 h
SK-MEL-2 melanoma = system: SK-MEL-2 melanoma
CCRF-CEM leukemia = system: CCRF-CEM leukemia
SK-MEL-28 melanoma = system: SK-MEL-28 melanoma
HL-60(TB) leukemia = system: HL-60(TB) leukemia
HS 578T breast = system: HS 578T breast
MDA-MB-231 breast = system: MDA-MB-231 breast
SR leukemia = system: SR leukemia
SNB-19 CNS = system: SNB-19 CNS
ACHN renal = system: ACHN renal
COLO 205 colon = system: COLO 205 colon
UACC-257 melanoma = system: UACC-257 melanoma
MOLT-4 leukemia = system: MOLT-4 leukemia
IGROV1 ovarian = system: IGROV1 ovarian
OVCAR-3 ovarian = system: OVCAR-3 ovarian
T-47D breast = system: T-47D breast
SF-268 CNS = system: SF-268 CNS
HCT-15 colon = system: HCT-15 colon
MALME-3M melanoma = system: MALME-3M melanoma
M14 melanoma = system: M14 melanoma
SW-620 colon = system: SW-620 colon
OVCAR-8 ovarian = system: OVCAR-8 ovarian
NCI-H522 lung = system: NCI-H522 lung
HOP-62 NSCLC = system: HOP-62 NSCLC
MDA-MB-435 = system: MDA-MB-435
BT-549 breast = system: BT-549 breast
U251 CNS = system: U251 CNS
NCI-H226 lung = system: NCI-H226 lung
786-0 renal = system: 786-0 renal
K-562 leukemia = system: K-562 leukemia
NCI/ADR-RES ovarian = system: NCI/ADR-RES ovarian
PC-3 prostate = system: PC-3 prostate
UO-31 renal = system: UO-31 renal
HOP-92 NSCLC = system: HOP-92 NSCLC
MDA-N = system: MDA-N
A549 NSCLC = system: A549 NSCLC
OVCAR-5 ovarian = system: OVCAR-5 ovarian
TK-10 renal = system: TK-10 renal
DU-145 prostate = system: DU-145 prostate
SN12C renal = system: SN12C renal
OVCAR-4 ovarian = system: OVCAR-4 ovarian
KM12 colon = system: KM12 colon
NCI-H23 lung = system: NCI-H23 lung
EKVX NSCLC = system: EKVX NSCLC
LOX IMVI melanoma = system: LOX IMVI melanoma
HCT-116 colon = system: HCT-116 colon
SK-OV-3 ovarian = system: SK-OV-3 ovarian
HT29 colon = system: HT29 colon
RXF 393 renal = system: RXF 393 renal
RPMI-8226 leukemia = system: RPMI-8226 leukemia
NCI-H460 lung = system: NCI-H460 lung
MCF7 breast = system: MCF7 breast
SK-MEL-5 melanoma = system: SK-MEL-5 melanoma
SF-295 CNS = system: SF-295 CNS
UACC-62 melanoma = system: UACC-62 melanoma
SNB-75 CNS = system: SNB-75 CNS
CAKI-1 renal = system: CAKI-1 renal
A498 renal = system: A498 renal
SF-539 CNS = system: SF-539 CNS
HCC-2998 colon = system: HCC-2998 colon

COC1=CC(=O)c2c(cc(COP(=O)(OCC3OC(n4cc(F)c(=O)[nH]c4=O)CC3O)N(C)CCCCCl)n2C)C1=O (stereo not given)
TGI (SK-MEL-2 melanoma): 56.6 µM | TGI (CCRF-CEM leukemia): > 100 µM | TGI (SK-MEL-28 melanoma): > 68.8 µM | TGI (HL-60(TB) leukemia): 16 µM | TGI (HS 578T breast): 2.64 µM | TGI (MDA-MB-231 breast): 35.8 µM | TGI (SR leukemia): > 92.7 µM | TGI (SNB-19 CNS): > 70.5 µM | TGI (ACHN renal): > 100 µM | TGI (COLO 205 colon): > 39.8 µM | TGI (UACC-257 melanoma): > 47.5 µM | TGI (MOLT-4 leukemia): > 54 µM | TGI (IGROV1 ovarian): 23.7 µM | TGI (OVCAR-3 ovarian): 14.5 µM | TGI (T-47D breast): 36.2 µM | TGI (SF-268 CNS): 16.1 µM | TGI (HCT-15 colon): > 86.4 µM | TGI (MALME-3M melanoma): 9.97 µM | TGI (M14 melanoma): 12.8 µM | TGI (SW-620 colon): > 59.9 µM | TGI (OVCAR-8 ovarian): > 73.3 µM | TGI (NCI-H522 lung): 19.1 µM | TGI (HOP-62 NSCLC): 26.8 µM | TGI (MDA-MB-435): 5 µM | TGI (BT-549 breast): > 100 µM | TGI (U251 CNS): 37.7 µM | TGI (NCI-H226 lung): 47.1 µM | TGI (786-0 renal): > 69.2 µM | TGI (K-562 leukemia): > 95.9 µM | TGI (NCI/ADR-RES ovarian): > 40.6 µM | TGI (PC-3 prostate): 22.7 µM | TGI (UO-31 renal): > 69.3 µM | TGI (HOP-92 NSCLC): 12.3 µM | TGI (MDA-N): 8.86 µM | TGI (A549 NSCLC): 6.27 µM | TGI (OVCAR-5 ovarian): 41.1 µM | TGI (TK-10 renal): > 100 µM | TGI (DU-145 prostate): 33.3 µM | TGI (SN12C renal): 1.84 µM | TGI (OVCAR-4 ovarian): > 34.8 µM | TGI (KM12 colon): 97.9 µM | TGI (NCI-H23 lung): 17.7 µM | TGI (EKVX NSCLC): 26 µM | TGI (LOX IMVI melanoma): 14.7 µM | TGI (HCT-116 colon): 28.5 µM | TGI (SK-OV-3 ovarian): > 79.8 µM | TGI (HT29 colon): > 40.7 µM | TGI (RXF 393 renal): 4.71 µM | TGI (RPMI-8226 leukemia): > 19.8 µM | TGI (NCI-H460 lung): 14 µM | TGI (MCF7 breast): 1.84 µM | TGI (SK-MEL-5 melanoma): 1.34 µM | TGI (SF-295 CNS): 1.36 µM | TGI (UACC-62 melanoma): 1.79 µM

COc1ccc2c(Cc3c4ccccc4cc4ccccc34)cncc2c1O
TGI (SK-MEL-2 melanoma): 17.5 µM | TGI (CCRF-CEM leukemia): 3.04 µM | TGI (SK-MEL-28 melanoma): 72.3 µM | TGI (HL-60(TB) leukemia): 8.36 µM | TGI (HS 578T breast): > 100 µM | TGI (MDA-MB-231 breast): 8.95 µM | TGI (SR leukemia): 0.551 µM | TGI (SNB-19 CNS): > 41.6 µM | TGI (ACHN renal): 27.3 µM | TGI (COLO 205 colon): 34.4 µM | TGI (UACC-257 melanoma): 14 µM | TGI (MOLT-4 leukemia): 8.82 µM | TGI (IGROV1 ovarian): 11 µM | TGI (OVCAR-3 ovarian): 8.97 µM | TGI (T-47D breast): > 71.7 µM | TGI (SNB-75 CNS): 29.4 µM | TGI (CAKI-1 renal): 36.3 µM | TGI (SF-268 CNS): > 100 µM | TGI (A498 renal): 23.9 µM | TGI (HCT-15 colon): > 22 µM | TGI (MALME-3M melanoma): 55 µM | TGI (M14 melanoma): 15.3 µM | TGI (SW-620 colon): > 100 µM | TGI (OVCAR-8 ovarian): 5.74 µM | TGI (NCI-H522 lung): 21.2 µM | TGI (HOP-62 NSCLC): 22.4 µM | TGI (MDA-MB-435): 0.622 µM | TGI (BT-549 breast): 53.1 µM | TGI (U251 CNS): 7.71 µM | TGI (NCI-H226 lung): 11.7 µM | TGI (786-0 renal): 23.4 µM | TGI (K-562 leukemia): 12.8 µM | TGI (NCI/ADR-RES ovarian): 9.17 µM | TGI (PC-3 prostate): > 59.9 µM | TGI (UO-31 renal): 34.9 µM | TGI (HOP-92 NSCLC): 13.2 µM | TGI (MDA-N): 4.55 µM | TGI (A549 NSCLC): > 39.8 µM | TGI (OVCAR-5 ovarian): > 57.4 µM | TGI (TK-10 renal): 17.6 µM | TGI (DU-145 prostate): > 22.4 µM | TGI (SN12C renal): > 63.9 µM | TGI (OVCAR-4 ovarian): > 74.2 µM | TGI (KM12 colon): 8.69 µM | TGI (NCI-H23 lung): 85.3 µM | TGI (SF-539 CNS): 0.546 µM | TGI (EKVX NSCLC): 50.1 µM | TGI (LOX IMVI melanoma): 8.5 µM | TGI (HCT-116 colon): 16.1 µM | TGI (SK-OV-3 ovarian): > 40.5 µM | TGI (HT29 colon): 33.5 µM | TGI (RXF 393 renal): > 21.6 µM | TGI (RPMI-8226 leukemia): 17 µM | TGI (NCI-H460 lung): 3.94 µM | TGI (MCF7 breast): > 38.2 µM | TGI (SK-MEL-5 melanoma): 3.05 µM | TGI (SF-295 CNS): 8.35 µM | TGI (UACC-62 melanoma): > 44.2 µM

CCCCCCCNC(P(=O)(O)O)P(=O)(O)O
TGI (SK-MEL-2 melanoma): > 100 µM | TGI (CCRF-CEM leukemia): > 100 µM | TGI (SK-MEL-28 melanoma): > 100 µM | TGI (HL-60(TB) leukemia): > 100 µM | TGI (HS 578T breast): 97.5 µM | TGI (MDA-MB-231 breast): > 100 µM | TGI (SR leukemia): > 100 µM | TGI (SNB-19 CNS): > 100 µM | TGI (ACHN renal): > 100 µM | TGI (COLO 205 colon): > 100 µM | TGI (UACC-257 melanoma): > 100 µM | TGI (MOLT-4 leukemia): > 100 µM | TGI (IGROV1 ovarian): > 100 µM | TGI (OVCAR-3 ovarian): > 100 µM | TGI (T-47D breast): > 100 µM | TGI (SNB-75 CNS): 43.3 µM | TGI (CAKI-1 renal): > 100 µM | TGI (SF-268 CNS): > 100 µM | TGI (A498 renal): > 100 µM | TGI (HCT-15 colon): > 100 µM | TGI (MALME-3M melanoma): > 100 µM | TGI (M14 melanoma): > 100 µM | TGI (SW-620 colon): > 100 µM | TGI (OVCAR-8 ovarian): > 100 µM | TGI (NCI-H522 lung): > 100 µM | TGI (HOP-62 NSCLC): > 100 µM | TGI (MDA-MB-435): > 100 µM | TGI (BT-549 breast): > 100 µM | TGI (U251 CNS): > 100 µM | TGI (NCI-H226 lung): > 100 µM | TGI (786-0 renal): > 100 µM | TGI (K-562 leukemia): > 100 µM | TGI (NCI/ADR-RES ovarian): > 100 µM | TGI (PC-3 prostate): > 100 µM | TGI (UO-31 renal): > 100 µM | TGI (HOP-92 NSCLC): > 100 µM | TGI (MDA-N): > 100 µM | TGI (A549 NSCLC): > 100 µM | TGI (OVCAR-5 ovarian): > 100 µM | TGI (TK-10 renal): > 100 µM | TGI (DU-145 prostate): > 100 µM | TGI (SN12C renal): > 100 µM | TGI (OVCAR-4 ovarian): > 100 µM | TGI (KM12 colon): > 100 µM | TGI (NCI-H23 lung): > 100 µM | TGI (SF-539 CNS): > 100 µM | TGI (EKVX NSCLC): > 100 µM | TGI (LOX IMVI melanoma): > 100 µM | TGI (HCC-2998 colon): > 100 µM | TGI (HCT-116 colon): > 100 µM | TGI (SK-OV-3 ovarian): > 100 µM | TGI (HT29 colon): > 100 µM | TGI (RPMI-8226 leukemia): > 100 µM | TGI (NCI-H460 lung): > 100 µM | TGI (MCF7 breast): > 100 µM | TGI (SK-MEL-5 melanoma): > 100 µM | TGI (SF-295 CNS): > 100 µM | TGI (UACC-62 melanoma): > 100 µM
